Where a SMILES comes first, the peptide text is derived from it. Where no end group is shown, it is not given here. The star is where a group is joined. pNA = O=[N+]([O-])c1ccc(N*)cc1; Cbz = O=C(OCc1ccccc1)*; Boc = CC(C)(C)OC(=O)*
How the values were obtained:
[1] = target: T1, interleukin 1β converting enzyme (ICE) (Homo sapiens, UniProt P29466); experiment: Spectrophotometric hydrolysis of pNA substrates by immobilized ICE (release of pNA at 405 nM); type: biochemical; conditions: 25° C.; for Increase In Absorbence Rates (mOD/min), first value: first of two rate values printed; for Increase In Absorbence Rates (mOD/min), first value / Increase In Absorbence Rates (mOD/min), second value: pH 7, 405 nM, condition that separates the two values not given; for Vmax (Rates) mOD/min: pNA substrate 0.01 to 1.5 mM, pH 7; for Increase In Absorbence Rates (mOD/min), second value: second of two rate values
T1 construct: ICE activity was purified from THP-1 cell lysates by three chromatographic steps; endogenous in cells; host or cells: THP-1 (ATCC-TIB 202) human monocyte cell line; Lysate was purified over G25, Q-Sepharose and MonoQ, then captured on protein A agarose beads carrying anti-ICE antibody
T1 sequence (P29466 120-297 limits assumed): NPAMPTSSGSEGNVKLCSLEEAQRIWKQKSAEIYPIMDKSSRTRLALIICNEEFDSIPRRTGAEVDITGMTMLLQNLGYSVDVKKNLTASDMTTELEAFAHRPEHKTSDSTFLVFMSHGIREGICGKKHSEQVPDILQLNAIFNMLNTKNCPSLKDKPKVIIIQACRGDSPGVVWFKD
T1 sequence (P29466 317-404 limits assumed): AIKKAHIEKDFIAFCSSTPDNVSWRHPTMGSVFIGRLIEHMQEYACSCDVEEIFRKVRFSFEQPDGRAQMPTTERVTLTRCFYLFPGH
Procedure: (§1) Other procedures for purification and assaying ICE are disclosed in Black et al., FEBS Letters, 247, 386-390 (1989), and Thornberry et al., Nature, 356, 768-774 (1992). Cell Culture And Lysates.
(§2) Human monocyte cell line, THP-1 (ATCC-TIB 202) was grown in RPMI media 1640 (Gibco BRL Gaithersburg, Md. 20877) with 10% fetal bovine serum, harvested by centrifugation, washed twice in Dulbecco's PBS […] without Ca^++, and resuspended in 10 mM Tris-HCl pH 8 buffer containing 5 mM DTT (dithiothreitol), 1 mM EDTA (ethylene diamine tetraacetic acid), 1 mM PMSF (phenylmethyl sulfonylfluoride), 1 μg/ml pepstatin, and 1 μg/ml leupeptin at 1-3×10^8 cells per ml. Cells were frozen at -70° C. until use and then lysed by thawing. Lysates were cleared by centrifugation at 20,000× g for 1 hour followed by 120,000×g for 1 hour.
(§3) ICE activity was purified from THP-1 cell lysates by three chromatographic steps: (A) Thp-1 cell lysate (1.5L) was desalted by G25 column chromatography (Pharmacia LKB Biotechnology) (B) The protein fraction was then subjected to ion-exchange chromatography on Q-Sepharose Fast Flow (Pharmacia LKB Biotechnology) in buffer A (20 mM Tris pH 7.8 containing 5 mM EDTA, 1 mM PMSF, 1 μg/ml pepstatin, and 1 μg/ml leupeptin). ICE activity was eluted with a gradient of NaCl in buffer A. (C) The active fractions from B were desalted, concentrated and subjected to MonoQ (trademark) (Pharmacia LKB Biotechnology) column chromatography. ICE activity was then eluted in a NaCl gradient. Active ICE fractions from C were pooled and used to bind immunoaffinity beads containing covalently linked antibodies raised against the first […] N-terminal residues of ICE (NH2 -Asp-Pro-Ala-Met-Pro-Thr-Ser-Ser-Val-Lys-Leu-Cys(SEQ ID NO:2)-CONH2).
Immobilization of ICE to immunoaffinity beads was done following standard protocols. Briefly, IgG fractions were covalently linked to protein A beads as described by the manufacturers (Antibody Orientation Kit Protein A Agarose supplied by Affinica (trademark) (Product manufactured by Schleicher and Schuell)). Protein A beads were pelleted by centrifugation and washed with 5 times their volume with Affinica (trademark) supplied "binding buffer". IgG, appropriately diluted in "binding buffer," was then bound to the beads. The beads were then washed and the bound IgG was covalently linked with dimethyl suberimidate. After the reaction was stopped with the "quenching buffer" supplied by Affinica (trademark), the immunoaffinity beads were washed and stored in PBS buffer containing 0.02% NAN3. To bind the immunoaffinity beads with MonoQ purified ICE preparations, the beads were washed in 10 mM Tris HCL buffer pH 7.8 containing 5 mM DDT, 1 mM EDTA-NA, 1 ug/ml peptstatin, 1 ug/ml leupeptin and 10% glycerol ("washing buffer"). After the wash, the beads were mixed with ICE in the presence of 10% DMSO final concentration. The suspension was rotated slowly for 1 hour at room temperature. Subsequently, the beads were thoroughly washed with the "washing buffer" before they were used and resuspended in an equal volume of this buffer in the enzymatic assay.
The enzymatic reaction was carried out at 25° C. in 96 microtiter wells (100 μl final volume) with active enzyme immobilized to anti-ICE antibodies covalently linked to protein A beads as described above. The incubation mixtures for the enzymatic assays contained 0.01 to 1.5 mM of the pNA substrates and was made up in 8.35 mM MES, 4.17 mM Tris, 4.17 mM acetic acid, […] DMSO, 0.8 mM EDTA and 4.17 mM DTT (final concentrations)adjusted to a final pH of 7.
The enzymatic reaction was monitored spectrophotometrically at […]. The increase in absorbance at this wave length resulted from the release of pNA chromophore after hydrolysis by ICE of the peptidic-pNA substrate. The release of the chormophore was linear with reaction time and the rates observed were proportional to ICE and substrate concentration. […]

[2] = target: T1, interleukin 1β converting enzyme (ICE); experiment: Inhibition of ICE hydrolysis of CBZ-Val-Ala-Asp-pNA; type: biochemical; conditions: for Ki: substrate CBZ-Val-Ala-Asp-pNA
Procedure: as §1, §2, §3
Immobilization of ICE to immunoaffinity beads was done following standard protocols. […]
The enzymatic reaction was monitored spectrophotometrically at […]. The increase in absorbance at this wave length resulted from the release of pNA chromophore after hydrolysis by ICE of the peptidic-pNA substrate. […]

Molecule | Increase In Absorbence Rates (mOD/min), first value [1] [mOD/min] | Vmax (Rates) mOD/min [1] [mOD/min] | Increase In Absorbence Rates (mOD/min), second value [1] [mOD/min] | type of inhibition ([2]; hydrolysis of CBZ-Val-Ala-Asp-pNA, affecting Km but not Vmax) | Ki [2] [µM]
CC(=O)N[C@@H](Cc1ccc(O)cc1)C(=O)N[C@H](C(=O)N[C@@H](C)C(=O)N[C@@H](CC(=O)O)C(=O)Nc1ccc([N+](=O)[O-])cc1)C(C)C [Example 1, Ac-TyrValAlaAsp (SEQ ID NO:1)-p-nitroanilide] | 0.21 | 0.27 | 0.17 | – | –
CC(C)[C@H](NC(=O)OC(C)(C)C)C(=O)N[C@@H](C)C(=O)N[C@@H](CC(=O)O)C(=O)Nc1ccc([N+](=O)[O-])cc1 [Example 4, t-BOCValAlaAsp-p-nitroanilide] (Boc-Val-Ala-Asp-pNA) | 0.17 | 0.24 | 0.10 | – | –
CC(=O)N[C@H](C(=O)N[C@@H](C)C(=O)N[C@@H](CC(=O)O)C(=O)Nc1ccc([N+](=O)[O-])cc1)C(C)C [Example 5, AcValAlaAsp-p-nitroanilide] (Ac-Val-Ala-Asp-pNA) | 0.15 | 0.25 | 0.08 | – | –
CC(C)[C@H](NC(=O)OCc1ccccc1)C(=O)N[C@@H](C)C(=O)N[C@@H](CC(=O)O)C(=O)Nc1ccc([N+](=O)[O-])cc1 [Example 6, CBZValAlaAsp-p-nitroanilide] (Cbz-Val-Ala-Asp-pNA) | 0.18 | 0.21 | 0.16 | – | –
Ac-YVHDA-NH2 [p48, Ac-Tyr-Val-His-Asp-Ala(SEQ ID NO:4)-NH2] | – | – | – | competitive inhibitors | 1600
H-NEAYVHDAPVRSLN [p70, H-Asn-Glu-Ala-Tyr-Val-His-Asp-Ala-Pro-Val-Arg-Ser-Leu-Asn] | – | – | – | – | 460
